The test system of data set [1] is monocytes. In words: Monocyte migration in response to MIP-1β after pretreatment. Particulars: fMLP 10^−6 M, 37° C. The class given is cell-based, human. The procedure:
Monocyte migration was assessed by a 48-well micro-chemotaxis chamber technique. 25 μl MIP-1β diluted in assay medium (RPMI 1640 with 1% BSA and 25 mM Hepes) was placed in the lower compartment of the chemotaxis chamber. 50 μl cell suspension (1×10^6 cell/ml) was placed in the upper compartment of the chamber. The upper and lower compartments were separated by a polycarbonate filter (5 μm pore-size, Neuroprobe, Cabin John, Md.). The chamber was incubated at 37° C. for 90 min in humidified air with 5% CO2. At the end of the incubation, the filter was removed, fixed and stained with Diff-Quik (Harlew, Gibbstown, N.J.). The migrated cells in three high-powered fields (HPF) obtained in triplicates (400×) were counted by light microscopy after coding the samples. The results are expressed as the net mean (±SD) number of migrated cells in 3 HPF after subtraction of spontaneous migration. At least three experiments were performed with same results.

The subject of the next data set is macrophages. Particulars: compared to cells treated with medium alone.
For data set [2], the system named is CCR5. In words: 125I-MIP-1β binding to monocytes. Further details: species or system human. The procedure:
Rocky Hill, N.J.). After incubation, the cells were washed with DPBS and centrifuged through a 10% sucrose/DPBS cushion. The tips of tubes containing cell pellets were cut and the cell-associated radioactivity was determined in a gamma counter. The results were presented as counts per minute (cpm) on 2×10^6 monocyte and were representative of at least three experiments performed.

Data set [3] has as its target T1, FPRL1 (Homo sapiens, UniProt P25090).
T1 construct: expressed in transfected cells; host or cells: HEK 293
T1 sequence (P25090 1-351): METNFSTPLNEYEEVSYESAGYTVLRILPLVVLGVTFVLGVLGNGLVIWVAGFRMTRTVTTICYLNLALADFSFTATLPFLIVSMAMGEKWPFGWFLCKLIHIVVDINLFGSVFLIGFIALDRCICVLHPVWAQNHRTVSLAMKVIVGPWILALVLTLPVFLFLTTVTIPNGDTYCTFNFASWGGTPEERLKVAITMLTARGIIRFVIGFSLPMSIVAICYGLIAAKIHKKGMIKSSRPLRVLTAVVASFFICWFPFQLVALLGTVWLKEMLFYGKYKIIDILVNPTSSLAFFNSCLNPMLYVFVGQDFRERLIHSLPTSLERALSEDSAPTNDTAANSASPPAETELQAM
The class given is cell-based.

The subject of data set [4] is monocyte tropic strains of HIV-1. It is filed as cell-based. The conditions noted are these: FPR-transfected HOS cells.
In data set [5] the test system is HIV-1BAL-env. As to the kind of experiment: HIV-1 env fusion with human blood monocytes. It is filed as cell-based.
In data set [6] the test system is parental or mock transfected cells. In words: Ca2+ mobilization in parental or mock transfected rat basophil cell line and HEK 293 cells. It is filed as cell-based. In general terms: Calcium assays in cells follow changes in intracellular calcium, usually with a dye or a luminescent sensor.
The test system of a further data set is HIVJRFL. The class given is cell-based, HIV-1. The conditions noted are these: peripheral blood monocyte/macrophages.
Data set [7] concerns the target T1, FPRL1. As to the kind of experiment: Ca2+ mobilization in FPRL1/293 cells. It is filed as cell-based. Here is the method: Calcium mobilization was measured by incubating 2×10^7/ml cells in loading medium (DMEM, 10% FBS) with 5 μM Fura-2 AM (Molecular Probes, Eugene, Oreg.) for 30 min at room temperature in the dark. The dye-loaded cells were washed 3 times with loading medium and resuspended in saline buffer [138 mM NaCl, 6 mM KCl, 1 mM CaCl2, 10 mM HEPES (pH 7.4), 5 mM Glucose, 0.1% BSA] at a concentration of 1×10^6/ml. The cells were then transferred into quartz cuvettes (2 ml) which were placed in a luminescence spectrometer (LS-50B, Perkin-Elmer, Beaconsfield, England). Stimulants at different concentrations were added in a volume of 20 μl to each cuvette at the indicated time points. The ratio of fluorescence at 340 and 380 nm wavelength was calculated using a FL WinLab program (Perkin-Elmer).
Calcium mobilization was assayed by incubating 2×10^7/ml of monocytes, neutrophils, FPRL1 or FPR transfectants in loading buffer containing 138 mM NaCl, 6 mM KCl, 1 mM CaCl2, 10 mM HEPES (pH 7.4), 5 mM glucose, 0.1% BSA with 5 μM Fura-2 (Sigma) at 37° C. for 30 min. The dye-loaded cells were washed and resuspended in fresh loading buffer. The cells were then transferred into quartz cuvettes (10^6 cells in 2 ml) which were placed in a luminescence spectrometer LS50 B (Perkin-Elmer Limited, Beaconsfield, England). Stimulants at different concentrations were added in a volume of 20 μl to the cuvettes at indicated time points. The ratio of fluorescence at 340 and 380 nm wavelength was calculated using the FL WinLab program (Perkin-Elmer).

The test system of data set [8] is CCR5. The class given is cell-based, human. Particulars: HOS/CD4/CCR5 cells co-expressing FPR.
The subject of data set [9] is HIV-1BAL-env. It is filed as cell-based. The conditions noted are these: HOS/CD4/CCR5 cells co-expressing FPR.
Data set [10] relates to CCR5. In words: Surface expression of CCR5 on monocytes by flow cytometry. It is filed as cell-based, human. Particulars: FITC-anti-CCR5 2D7. The procedure:
The change of surface expression of CCR5 on monocytes was monitored by FACS analyses (courtesy of L. […] The cells were then washed twice with DPBS containing 2% BSA and fixed with 1% Paraformaldehyde (Sigma). The fluorescence was measured by flow cytometer (Becton Dickinson, San Jose, Calif.). Results are presented as the percentage of cells stained with anti-CCR5 antibody.

Data set [11] relates to monocytes. As to the kind of experiment: Monocyte chemotaxis, 48-well micro-chemotaxis chamber. The class given is cell-based, human. Particulars: human monocytes.
Another data set concerns neutrophils. In words: Neutrophil chemotaxis, 48-well micro-chemotaxis chamber. The class given is cell-based. Particulars: human neutrophils.
The test system of another data set is T lymphocytes. In words: T lymphocyte chemotaxis. It is filed as cell-based, human.
Another data set concerns the target CXCR4 (Homo sapiens, UniProt P61073). In words: Interaction with CXCR4.

Where two headings read alike, the source gives them in different places.

CXCR4, sequence (P61073 whole entry): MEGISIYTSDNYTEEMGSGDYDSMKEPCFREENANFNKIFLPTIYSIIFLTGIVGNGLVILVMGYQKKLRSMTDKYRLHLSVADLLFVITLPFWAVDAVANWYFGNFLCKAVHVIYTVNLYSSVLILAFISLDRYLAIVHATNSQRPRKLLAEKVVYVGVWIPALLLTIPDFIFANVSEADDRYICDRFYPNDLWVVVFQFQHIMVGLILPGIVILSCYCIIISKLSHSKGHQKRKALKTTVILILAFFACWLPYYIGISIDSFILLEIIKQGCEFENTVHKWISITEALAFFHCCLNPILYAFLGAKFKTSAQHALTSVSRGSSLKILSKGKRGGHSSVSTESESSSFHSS

Regarding `CSCC[C@H](NC=O)C(=O)N[C@@H](CC(C)C)C(=O)N[C@@H](Cc1ccccc1)C(=O)O` [fMLP, N-formyl-methionyl-leucyl-phenylalanine], in the data set on monocytes [1], the “chemotactic response to MIP-1β after pretreatment” value is reported as “progressively reduced chemotactic response”. The viability of macrophages result in the data set on macrophages is listed as “did not affect the viability of macrophages”. For the same compound, the “specific binding for 125I-MIP-1β after treatment” value with CCR5 [2] (monocytes treated for 1 h) is listed as “markedly reduced”. For the same compound, in the data set with CCR5 [2] (monocytes treated for up to 30 min at 37° C.), the “binding of 125I-MIP-1β after treatment” value is “only a marginally reduced binding”. In addition, the “displacement of 125I-MIP-1β binding” value with CCR5 [2] (monocytes, high concentrations as competitor) is listed as “did not displace any”. The migration / chemotaxis result on FPRL1 [3] is on record as “failed to migrate”. Further, the “fusion and infection, syncytia formation and p24 production” value in data set [4] is “significantly reduced the fusion and infection”; in the data set with HIVJRFL, “significantly reduced the fusion and infection”. The HIV-1 env fusion entry with HIV-1BAL-env [5] is recorded as “inhibition of HIV-1 env fusion with blood monocytes”. The “Ca2+ mobilization” value in data set [6] is recorded as “did not induce Ca^2+ mobilization”. For the same compound, the “excess required to desensitize the effect of W peptide (Ca2+ flux)” value at FPRL1 [7] (FPRL1/293 cells) is 10^5 fold excess. In addition, the “minimal effective concentration to induce Ca2+ mobilization” value at FPRL1 [7] (FPRL1/293 cells, given as range in words) is listed as “μM range”. Also, in the data set on CCR5 [8], the “phosphorylation of CCR5” value is “induced an increase in phosphorylation of CCR5”. Besides, the HIV-1BAL-env-mediated fusion entry with HIV-1BAL-env [9] is “markedly inhibited”. Besides, in the data set on CCR5 [10], the “expression of CCR5 on the cell surface” value is “markedly downregulated”.

For “TRPNYNKRKRIHIGPGRAFYTTKNIIGTIRQAH-NH2 [V3 peptide]”, the “chemotactic activity / migration” value in the data set with monocytes [11] and with neutrophils was “potent chemoattractant” each time. In the data set with FPRL1 [3] (FPRL1/293 cells), the migration / chemotaxis result was “induced both Ca^2+ mobilization and chemotaxis”. Also, the chemotactic activity result in the data set on T lymphocytes was “weak chemoattractant”. The “interaction with CXCR4” value in the data set with CXCR4 is reported as “did not interact with CXCR4”. The “Ca2+ mobilization” value with FPRL1 [7] (HEK293 cells transfected to express FPRL1) is “induced both Ca^2+ mobilization and chemotaxis”.

The record behind these values is US6808877B2, “Ligands for FPR class receptors that induce a host immune response to a pathogen or inhibit HIV infection” (priority 2000, dated 2004).
